Columns and labels:
[1] = cited from earlier work
[2] = system: rat brain cortical neurons (BCN); assay: Ionomycin-induced toxicity in brain cortical neurons, MTT assay; format: cell-based; details: ionomycin 1 µM
Experimental: (§1) This neurotoxicity model reflects the calcium stress involved with several types of insults, such as amyloid toxicity, excitotoxicity, and ischemic damage. The viability of the primary culture of rat cerebellar granule cells (CGC) and brain cortical neurons (BCN) was assessed by the MTT assay in the presence of various concentrations of compound 4i.
Cerebellar granule cells (CGC) and brain cortical neurons (BCN) were isolated from P-7 or P0-2 rat’s pups, respectively, using a previously described protocol. Once removed, cerebella or brain cortex were digested for 15 min in 0.025% type II trypsin (w/v) at 37 °C. Ice-cold DMEM containing 5% (w/v) fetal bovine serum was added to inactivate the trypsin. The crude cell suspension was centrifuged, and the cell pellet was resuspended in Neurobasal with 2% (v/v) B27 supplemented with 15% (v/v) fetal bovine serum (FBS), 100 U/mL penicillin, and […] streptomycin. The cells were cultured in a humidified, 5% (v/v) CO2-controlled environment at 37 °C. […] The cell viability was then evaluated as the dehydrogenase activity with the 3-(4,5-dimethylthiazol-2-yl)-2,5-diphenyltetrazolium bromide (MTT) assay. The absorbance was measured at 570 nm using a Victor microplate reader (Perkin Elmer), and data were normalized with intact control assumed 100%.

[3] = system: rat cerebellar granule cells (CGC) and brain cortical neurons (BCN); assay: Viability of CGC and BCN with the compound alone, MTT assay; format: cell-based; details: various concentrations
Experimental: as §1
(§2) Cerebellar granule cells (CGC) and brain cortical neurons (BCN) were isolated from P-7 or P0-2 rat’s pups, respectively, using a previously described protocol. Once removed, cerebella or brain cortex were digested for 15 min in 0.025% type II trypsin (w/v) at 37 °C. Ice-cold DMEM containing 5% (w/v) fetal bovine serum was added to inactivate the trypsin. […] After 8-10 day in culture the cells were incubated with a test compound or an equal volume of the DMSO (<1% (v/v) of the whole volume of the medium under the layer of cells and 3 µM ionomycin for 24 h. The cell viability was then evaluated as the dehydrogenase activity with the 3-(4,5-dimethylthiazol-2-yl)-2,5-diphenyltetrazolium bromide (MTT) assay. The absorbance was measured at 570 nm using a Victor microplate reader (Perkin Elmer), and data were normalized with intact control assumed 100%.

[4] = system: primary culture of rat cerebellar granule cells (CGC); assay: Ionomycin-induced toxicity in cerebellar granule cells, MTT assay; format: cell-based; details: ionomycin 3 µM
Experimental: as §1, §2

SMILES: CN(C)c1ccc2nc3ccc(=[N+](C)C)cc-3sc2c1 [MB, Methylene blue, reference compound]
- Redox potential [1]: 11 mV

SMILES: CC1CCc2c(c3cc(OC(F)(F)F)ccc3n2CCC(=O)N2c3ccc(N(C)C)cc3Sc3cc(N(C)C)ccc32)C1 (stereo not shown) [Compound 4i]
- Protection from ionomycin-induced toxicity, BCN [2]: statistically significant protection
- Effect on formazan formation in the MTT assay (toxicity to cells) [3]: did not affect formazan formation
- Protection from ionomycin-induced toxicity, CGC [4]: statistically significant protection

— PMC9697446 (International Journal of Molecular Sciences, 2022)
